# Data from patent EP0181129B1, “N6-substituted deoxyribose analogs of adenosines” (WARNER-LAMBERT COMPANY, priority 1984, dated 1986).
# Target: T1, adenosine A1 receptor (Rattus norvegicus, UniProt P25099)
# T1 construct: brain minus cerebellum and brainstem from male Long Evans rats (150-200 g) was homogenized; from tissue; host or cells: rat whole brain minus cerebellum and brainstem, membrane homogenate
# T1 sequence (P25099 1-326): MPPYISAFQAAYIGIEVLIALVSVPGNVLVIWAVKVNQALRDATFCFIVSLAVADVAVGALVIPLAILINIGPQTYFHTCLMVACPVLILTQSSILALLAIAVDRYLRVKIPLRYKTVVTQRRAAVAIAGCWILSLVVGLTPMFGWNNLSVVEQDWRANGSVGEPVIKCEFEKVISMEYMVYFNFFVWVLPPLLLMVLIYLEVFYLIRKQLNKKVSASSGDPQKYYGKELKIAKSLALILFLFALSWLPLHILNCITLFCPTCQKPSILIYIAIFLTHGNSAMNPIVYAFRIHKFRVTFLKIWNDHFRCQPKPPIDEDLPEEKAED
# Assay: Adenosine Receptor Binding - A1 Receptor Affinity (RBA1), [3H]-CHA displacement
# Conditions: 1.0 nM [3H]-CHA, rat whole brain membranes, one hour at 25°C; read-out: Receptor Binding RBA—1
# Experimental: While brain minus cerebellum and brainstem from male Long Evans rats (150-200 g) was homogenized in 30 volumes of ice-cold 0.05 M Tris-CHI buffer pH 7.7 using a Brinkman Polytron PT-10, (setting number 6 for 20 seconds) and centrifuged for ten minutes at 20,000 x g (Sorvall RC-2), 4°C. The supernatant was discarded, and the pellet was resuspended and centrifuged as before. The pellet was resuspended in 20 ml Tris-HCI buffer containing two International Units/ml of adenosine deaminase (Sigma type III from calf intestinal mucosa), incubated at 37°C for 30 minutes, then subsequently at 0°C for ten minutes. The homogenate was again centrifuged, and the final pellet was resuspended in ice-cold 0.05 M Tris-HCI buffer pH 7.7 to a concentration of 20 mg/ml original wet tissue weight and used immediately.
# Tissue homogenate (10 mg/ml) was incubated in 0.05 M Tris-HCI buffer pH 7.7 containing 1.0 nM (^3H]-N^e-cyclohexyladenosine ([^3H]-CHA) with or without tests agents in triplicate for one hour at 25°C. Incubation volume was 2 ml. Unbound [^3H]-CHA was separated by rapid filtration under reduced pressure through Whatman glass fiber (GF/B) filters. The filters were rinsed three times with 5 ml of ice cold 0.05 M Tris-HCI buffer pH 7.7. The radio-labeled ligand retained on the filter was measured by liquid scintillation spectrophotometry after shaking the filters for one hour or longer on a mechanical shaker in 10 ml of Beckman Ready-Solv HP scintillation cocktail.
# Nonspecific binding was defined as the binding which occurred in the presence of 1 mM theophylline. […] The Scatchard plot was calculated by linear regression of the line obtained by plotting the amount of radioligand bound (pmoles/gram of tissue) [formula] Since the amount of radioligand bound was a small fraction of the total amount added, free radioligand was defined as the concentration (nM) of radioligand added to the incubation mixture. The Hill coefficient was calculated by linear regression of the line obtained by plotting the log of the bound radioligand vs the log of the [formula] The maximal number of binding sites (Bmax) was calculated from the Scatchard plot.
row,SMILES,IC50 [µM]
1,"C[C@H]1O[C@@H](n2cnc3c(NC4CCCc5ccccc54)ncnc32)[C@H](O)[C@@H]1O (stereo partly drawn) [Example 19, N^6-1-Tetralinyl-5' -deoxyadenosine]",1.37
2,"C[C@H]1O[C@@H](n2cnc3c(NCc4cccc5ccccc45)ncnc32)[C@H](O)[C@@H]1O [Example 20, N^6-α-Naphthylmethyl-5' -deoxyadenosine]",1.01
3,"O[C@@H]1[C@H](O)[C@@H](CCl)O[C@H]1n1cnc2c(NC3CCc4ccccc43)ncnc21 (stereo partly drawn) [Example 23, (R)-N^6(1-Indanyl)-5'-deoxy-5'-chloroadenosine]",0.08
